Measured values from patent US6667387B1, “HCV core peptides” (priority 1992, dated 2003).
Ends that are not written are not given here. * marks the point of attachment. Biotin = O=C1N[C@H]2[C@H](CS[C@H]2CCCCC(=O)*)N1

Experiments:
Assay type in all cases: binding, human
[1] = test system: antibodies in antisera from HIV-1 infected persons; test: ELISA with HIV-1 antibody-positive sera (biotinylated peptides on streptavidin- or avidin-coated plates, unbiotinylated peptides coated directly)
Method: (§1) Where peptides were to be coated directly, stock solutions of the peptides were diluted in sodium carbonate buffer, pH 9.6 and used to coat polystyrene microtiter plates at a peptide concentration of 2 to 5 micrograms per milliliter for 1 hour at 37° C.
(§2) In cases where biotinylated peptides were to be evaluated, plates were first coated with streptavidin in sodium carbonate buffer, pH 9.6 at a concentration of 3 micrograms per milliliter for 1 hour at 37° C. The plates were then washed to remove excess, unbound protein. A working solution of the biotinylated peptide at 1 microgram per milliliter in sodium carbonate buffer was then added to the wells of the microtiter plate and incubated for 1 hours at 37° C.
(§3) Once the plates had been coated with antigen, any remaining free binding sites on the plastic were blocked with casein. After washing, a dilution of the appropriate antisera, usually 1:100, was added to the wells of the plates and incubated for 1 hour at 37° C.
(§4) After washing to remove unbound material, specific antibody binding was detected by incubating the plates with goat anti-human immunoglobulin antibodies conjugated to the enzyme horseradish peroxidase. Following removal of unbound conjugate by washing, a solution containing H2O2 and 3,3′,5,5′-tetramethylbenzidine was added.
(§5) Reactions were stopped after a suitable interval by addition of sulfuric acid. […] Absorbance measurements were made at a wavelength of 450 nanometers and all data are expressed as an optical density value at this wavelength.
Experiments were performed to evaluate antibody recognition of short, 10 amino acid-long, N-acetylated peptides corresponding to other contained within the transmembrane proteins of HIV-1 and HIV-2. […] The peptides used for the comparison were as follows:
Antibody binding to these peptides was compared to antibody binding to the unibiotinylated peptides which were coated directly onto microtiter plates.
In order to evaluate antibody recognition of these two peptides, the peptides were bound individually to streptavidin-coated microtiter plates and tested using a panel of antisera from HIV-1 seropositive donors.
(§6) To determine how well biotinylated peptides would function in a mixture when bound to streptavidin- or avidin-coated plates, two mixtures were made of the N-terminally biotinylated versions of the HIV-1 peptides TM-HIV-1 (hereabove referred to as 1a.1) and V3-nm (hereabove referred to as 1b.4), the HIV-2 peptide TM-HIV-2 (hereabove referred to as 2a), and the hepatitis C virus peptides II, IX, and XVIII. Mixture A contained each of the six biotinylated peptides at a concentration of 1 microgram per milliliter (6 micrograms per milliliter peptide, total) while in mixture B, each peptide was present at a concentration of 0.1 microgram per milliliter (0.6 microgram per milliliter peptide, total). The individual peptides were coated at a concentration of 1 microgram per milliliter. For purposes of comparison, mixtures A and B were also coated directly onto the wells of a microtiter plate. Samples from HIV-1, HIV-2, and HCV-seropositive donors were tested and compared to sera from seronegative blood donors. A cut-off absorbance value of 0.250 was used to determine whether a reaction was positive or negative. Absorbance values equal or greater than 0.250 were considered positive while absorbance values below this value were considered negative.
A spacer consisting of two glycine residues was added to the amino terminus.

[2] = test system: antibodies in antisera from HIV-2 infected persons; test: ELISA with HIV-2 antibody-positive sera (biotinylated peptides on streptavidin- or avidin-coated plates, unbiotinylated peptides coated directly)
Method: as §1, §2, §3, §4, §5
The biotinylated peptides were loaded onto microtiter plates which had been coated with streptavidin. Antibody binding to these peptides was compared to antibody binding to the unibiotinylated peptides which were coated directly onto microtiter plates. It is evident that the biotinylated peptides from the HIV-1 or HIV-2 transmembrane proteins bound to streptavidin are recognized very well by antisera from HIV-1 or HIV-2 infected persons respectively. This is in contrast to the unbiotinylated versions of these peptides coated directly onto the polystyrene plates.
as §6
Two glycine residues were added at the N-terminus of each peptide to serve as a spacer and a biotin was coupled to the α-amino group of the resulting N-terminal glycine. The peptides were bound to streptavidin and coated in the wells of microwell plates. HIV-2 antibody-positive sera were used to evaluate these two peptides in an ELISA.

[3] = test system: HIV-1 anti-V3 loop antibodies in sera; test: Line immunoassay (LIA) with HIV-1 gp120 V3 loop peptides; conditions: for recognition of peptide, % of sera: Table 15
Text: In order to determine the general diagnostic value of the V3 loop region of gp120, nine peptides derived from this region of nine different HIV-1 isolates were synthesized and included in a LIA. All nine peptides were provided with a Gly-Gly spacer and an N-terminal biotin. The aligned peptides (one-letter amino acid code) sequences are as follows: (SEQ ID NOs: 154-162, respectively)
The peptides were mixed with streptavidin in a slight molar excess over biotin binding sites and the peptide:streptavidin complexes were separated from unbound material over Sephadex G-25. Material eluting in the void volume was used in the preparation of the LIA.
A total of 332 sera were tested which had been obtained from various geographical regions. […] The reactions of the various lines were evaluated as positive (i) or negative (o) (data not shown).
In total, 307 of the 332 sera gave a reaction to at least one peptide on the V3-loop LIA. […] The total number of positive sera tested was therefore 326. […] There were, however, significant geographical differences.

[4] = Table 8, serum 3990 (HIV-1), Avidin
[5] = Table 8, serum DV (HIV-1), Avidin
[6] = Table 8, serum PL (HIV-1), Avidin
[7] = Table 8, serum YS (HIV-1), Avidin
[8] = Table 8, serum 1400 (HIV-2), Avidin
[9] = Table 8, serum AG (HIV-2), Avidin
[10] = Table 14, HIV-V3 positive sera, 307
[11] = Table 14, gp120 positive sera, COUNT 326

Bio-Gly-Gly-Gly-Ile-Trp-Gly-Cys-Ser-Gly-Lys-Leu-Ile-Cys-NH2 (Biotin-GGGIWGCSGKLIC-NH2; cysteine pairing not given here) [TM-HIV-1 Bio]
optical density (450 nm) ([1]; Table 1, serum 0724, HIV-1 positive): 2.570 | optical density (450 nm) ([1]; Table 1, serum PL, HIV-1 positive): 1.559 | optical density (450 nm) ([1]; Table 1, serum VE, HIV-1 positive): 2.551 | optical density (450 nm) ([1]; Table 1, serum YEMO, HIV-1 positive): 2.357 | optical density (450 nm) ([1]; Table 1, serum mm, HIV-1 positive): 2.579 | optical density (450 nm) ([1]; Table 6, serum 0369/87, HIV positive): 2.042 | optical density (450 nm) ([1]; Table 6, serum 0724, HIV positive): 2.291 | optical density (450 nm) ([1]; Table 6, serum 1164, HIV positive): 1.919 | optical density (450 nm) ([1]; Table 6, serum 1252, HIV positive): 2.356 | optical density (450 nm) ([1]; Table 6, serum 2049, HIV positive): 2.058 | optical density (450 nm) ([1]; Table 6, serum 3990, HIV positive): 1.870 | optical density (450 nm) ([1]; Table 6, serum 4436, HIV positive): 2.110 | optical density (450 nm) ([1]; Table 6, serum 4438, HIV positive): 1.697 | optical density (450 nm) ([1]; Table 6, serum DV, HIV positive): 1.579 | optical density (450 nm) ([1]; Table 6, serum MM, HIV positive): 2.308 | optical density (450 nm) ([1]; Table 6, serum OOST 6, HIV positive): 2.003 | optical density (450 nm) ([1]; Table 6, serum OOST 7, HIV positive): 2.027 | optical density (450 nm) ([1]; Table 6, serum OOST 8, HIV positive): 2.237 | optical density (450 nm) ([1]; Table 6, serum OOST 9, HIV positive): 2.222 | optical density (450 nm) ([1]; Table 6, serum PL, HIV positive): 1.849 | optical density (450 nm) ([1]; Table 6, serum VCM, HIV positive): 2.263 | optical density (450 nm) ([1]; Table 6, serum VE, HIV positive): 2.240 | optical density (450 nm) [1, 4]: 1.602 | optical density (450 nm) [1, 5]: 1.329 | optical density (450 nm) [1, 6]: 1.974 | optical density (450 nm) [1, 7]: 0.046 | optical density (450 nm) ([2]; Table 1, serum 53-3, HIV-2 positive): 0.000 | optical density (450 nm) ([2]; Table 1, serum 1400, HIV-2 positive): 0.000 | optical density (450 nm) ([2]; Table 1, serum AG, HIV-2 positive): 0.000 | optical density (450 nm) [2, 8]: 0.051 | optical density (450 nm) [2, 9]: 0.054

Bio-Gly-Gly-Tyr-Asn-Lys-Arg-Lys-Arg-Ile-His-Ile-Gly-Pro-Gly-Arg-Ala-Phe-Tyr-Thr-Thr-Lys-Asn-Ile-Ile-Gly-NH2 (Biotin-GGYNKRKRIHIGPGRAFYTTKNIIG-NH2) [V3-mn Bio]
optical density (450 nm) ([1]; Table 2, sample 266): 2.591 | optical density (450 nm), off scale ([1]; Table 2, sample 3990): overflow* (Absorbance value greater than 3.000) | optical density (450 nm) ([1]; Table 2, sample 4436): 2.268 | optical density (450 nm) ([1]; Table 2, sample 4438): 2.554 | optical density (450 nm) ([1]; Table 2, sample DV): 2.881 | optical density (450 nm) ([1]; Table 2, sample MM): 2.542 | optical density (450 nm), off scale ([1]; Table 2, sample OOST 4): overflow* (Absorbance value greater than 3.000) | optical density (450 nm) ([1]; Table 2, sample OOST 6): 2.355 | optical density (450 nm), off scale ([1]; Table 2, sample OOST 8): overflow* (Absorbance value greater than 3.000) | optical density (450 nm) ([1]; Table 2, sample PL): 2.351 | optical density (450 nm), off scale ([1]; Table 2, sample VE): overflow* (Absorbance value greater than 3.000) | optical density (450 nm) ([1]; Table 2, sample YS): 2.784 | optical density (450 nm) ([1]; Table 3, serum 3990, peptide bound to avidin): 1.854 | optical density (450 nm) ([1]; Table 3, serum 3990, peptide bound to streptavidin): 1.391 | optical density (450 nm) ([1]; Table 3, serum 4436, peptide bound to avidin): 1.519 | optical density (450 nm) ([1]; Table 3, serum 4436, peptide bound to streptavidin): 0.596 | optical density (450 nm) ([1]; Table 3, serum DV, peptide bound to avidin): 1.748 | optical density (450 nm) ([1]; Table 3, serum DV, peptide bound to streptavidin): 1.041 | optical density (450 nm) ([1]; Table 3, serum PL, peptide bound to avidin): 0.983 | optical density (450 nm) ([1]; Table 3, serum PL, peptide bound to streptavidin): 0.222 | optical density (450 nm) ([1]; Table 3, serum VE, peptide bound to avidin): 1.908 | optical density (450 nm) ([1]; Table 3, serum VE, peptide bound to streptavidin): 1.526 | optical density (450 nm) ([1]; Table 3, serum YS, peptide bound to avidin): 1.721 | optical density (450 nm) ([1]; Table 3, serum YS, peptide bound to streptavidin): 1.236 | optical density (450 nm) [1, 4]: 2.319 | optical density (450 nm) [1, 5]: 2.340 | optical density (450 nm) [1, 6]: 1.321 | optical density (450 nm) [1, 7]: 2.201 | optical density (450 nm) [2, 8]: 0.055 | optical density (450 nm) [2, 9]: 0.068 | % Reactive [3, 10]: 90% | Total SUM (reactive sera), printed on the line COUNT [3, 10]: 275 | % Reactive [3, 11]: 84% | Total SUM (reactive sera) [3, 11]: 275 | recognition of peptide, % of sera ([3]; AFRICAN sera): 85% | recognition of peptide, % of sera ([3]; BRAZILIAN sera): 78% | recognition of peptide, % of sera ([3]; EUROPEAN sera): 97%

ETWKKPDYEPPVVHGCPLPP
optical density (450 nm) [1, 4]: 0.056 | optical density (450 nm) [1, 5]: 0.047 | optical density (450 nm) [1, 6]: 0.052 | optical density (450 nm) [1, 7]: 0.049 | optical density (450 nm) [2, 8]: 1.362 | optical density (450 nm) [2, 9]: 0.058

IIPDREVLYREFDEMEECSQ
optical density (450 nm) [1, 4]: 0.066 | optical density (450 nm) [1, 5]: 0.049 | optical density (450 nm) [1, 6]: 0.056 | optical density (450 nm) [1, 7]: 0.049 | optical density (450 nm) [2, 8]: 0.052 | optical density (450 nm) [2, 9]: 0.064

PQRKTKRNTNRRPQDVKFPG
optical density (450 nm) [1, 4]: 0.054 | optical density (450 nm) [1, 5]: 0.047 | optical density (450 nm) [1, 6]: 0.052 | optical density (450 nm) [1, 7]: 0.048 | optical density (450 nm) [2, 8]: 0.121 | optical density (450 nm) [2, 9]: 0.081
